Values joined by “and” are separate entries in the source; they are usually repeats but may differ in a detail not shown here. Equal entries are not always repeated. Where two headings read alike, the source gives them in different places.
How the values were obtained:
[1] = system: SARS-CoV-2 (Wuhan strain) ectodomain SΔTM trimers; conditions: 0.1 µM labeled Spike; 50 µM compound, 0.3 µM CV3-13, 0.6 µM ACE2; unbound Spike 40% ± 2%
[2] = system: SARS-CoV-2 HK.3 Spike pseudovirus; assay: organism not typed; assay type: cell-based; conditions: read-out: IC50 HK.3
[3] = in vivo
Vero-E6 cells = assay: Cell viability test (CellTiter-Glo), Vero-E6; conditions: concentrations up to 100 µM, 48 h
SARS-CoV-2WA1-nLuc = system: SARS-CoV-2WA1-nLuc; set-up: species or system K18-hACE2 mice; conditions: mouse, in vivo
[4] = system: SARS-CoV-2 B.1.1.7 Spike pseudovirus; assay: organism not typed; assay type: cell-based; conditions: read-out: IC50 B.1.1.7
[5] = system: pseudoviral particles bearing the Spike glycoprotein from SARS-CoV-2; assay: microbe, parasite or virus in culture; assay type: cell-based; conditions: pseudovirus, 293T-ACE2 cells, compounds up to 100 µM
[6] = system: SARS-CoV-2 XEC Spike pseudovirus; assay: organism not typed; assay type: cell-based; conditions: read-out: IC50 XEC
[7] = system: SARS-CoV-2 XBB.1.5 Spike pseudovirus; assay: organism not typed; assay type: cell-based; conditions: read-out: IC50 XBB.1.5
[8] = system: SARS-CoV-2 BA.4/5 Spike pseudovirus; assay: organism not typed; assay type: cell-based; conditions: read-out: IC50 BA.4/5
[9] = system: pseudoviral particles carrying SARS-CoV-1 S; assay: microbe, parasite or virus in culture; assay type: cell-based
293T-ACE2 cells = assay: Cell viability test (CellTiter-Glo), 293T-ACE2; conditions: concentrations up to 100 µM, 48 h
[10] = system: authentic SARS-CoV-2 XBB.1; assay: microbe, parasite or virus in culture; assay type: cell-based; conditions: Severe acute respiratory syndrome coronavirus 2, Vero C1008, read-out: IC50 authentic SARS-CoV-2 XBB.1
[11] = system: SARS-CoV-2 BA.2.86 Spike pseudovirus; assay: organism not typed; assay type: cell-based; conditions: read-out: IC50 BA.2.86
[12] = system: SARS-CoV-2 JN.1 Spike pseudovirus; assay: organism not typed; assay type: cell-based; conditions: read-out: IC50 JN.1
[13] = system: SARS-CoV-2 EG.5.1 Spike pseudovirus; assay: organism not typed; assay type: cell-based; conditions: read-out: IC50 EG.5.1
[14] = system: SARS-CoV-2 KP.3.1.1 Spike pseudovirus; assay: organism not typed; assay type: cell-based; conditions: read-out: IC50 KP.3.1.1
[15] = system: SARS-CoV-2 XBB.1.16 Spike pseudovirus; assay: organism not typed; assay type: cell-based; conditions: read-out: IC50 XBB.1.16
[16] = system: pseudoviral particles carrying VSV-G; assay: microbe, parasite or virus in culture; assay type: cell-based; conditions: Vesicular stomatitis virus
[17] = Severe acute respiratory syndrome coronavirus 2, 293T/ACE2, read-out: IC50 SARS-CoV-2, Table 1
[18] = Severe acute respiratory syndrome coronavirus, 293T/ACE2, read-out: IC50 SARS-CoV-1
[19] = 293T/ACE2, read-out: IC50 VSV-G

Row | Compound | RBD-up conformation occupancy [1] | IC50 [2] [nM] | Toxicity in Vero-E6 cells (Vero-E6 cells) | IC50 [4] [nM] | IC50 [5, 17] [nM] | IC50 [6] [nM] | IC50 [7] [nM] | IC50 [8] [nM] | IC50 [9, 18] [nM] | IC50 ([9]; read-out: IC50 SARS-CoV-1) | Toxicity in 293T-ACE2 cells (293T-ACE2 cells) | IC50 [10] [nM] | IC50 [11] [nM] | IC50 [12] [nM] | IC50 [13] [nM] | IC50 [14] [nM] | IC50 [15] [nM] | IC50 [16, 19] [nM] | IC50 ([16]; 293T/ACE2, read-out: IC50 VSVG) [nM] | other results
1 | CN(C)C[C@@H](O)COc1cc(Br)cc(OC[C@H](O)CN(C)C)c1 [Compound 27] | 55% ± 2% | 730 | no toxicity | 1120 | 440 | 1790 | 1040 | 1450 | 620 | 625 nM and 930 nM | no toxicity | 24000 | 3300 | 1340 | 1130 | 2380 | 1800 | 52400 | > 100000 | Concentration in plasma ([3]; both, K18-hACE2, mouse): ~ 1.5 µM; Plasma retention ([3]; mouse): short plasma retention; Brain penetration ([3]; mouse, ip): minimal penetration in the brain; Protection / survival outcome (SARS-CoV-2WA1-nLuc): succumbed to virus-induced mortality; Survival extended compared to the control group (SARS-CoV-2WA1-nLuc): 1 days; IC50 ([5]; read-out: IC50 SARS-CoV-2, Table 1): 437 nM
2 | CN1CCN(C[C@@H](O)COc2cc(Br)cc(OC[C@H](O)CN3CCN(C)CC3)c2)CC1 [Compound 30] |  | 540 | no toxicity | 1260 | 1480 | 3090 | 1050 | 4880 | 1980 | 1310 nM | no toxicity | 38000 | 3520 | 3900 | 1500 | 2160 | 1400 | 80800 | > 100000 | 
3 | CCN(C)C[C@@H](O)COc1cc(Br)cc(OC[C@H](O)CN(C)CC)c1 [Compound 33] | 61% ± 2% | 2350 | no toxicity | 1440 | 1710 | 2390 | 2430 | 2810 | 1440 | 1300 nM | no toxicity | 17000 | 2970 | 2020 | 1820 | 2990 | 2130 | > 100000 | > 100000 | 
4 | ACE2 | 67% ± 2% |  |  |  |  |  |  |  |  |  |  |  |  |  |  |  |  |  |  | 

From PMC12645998, “Optimization of VE607 to generate analogs with improved neutralization activities against SARS-CoV-2 variants” (Journal of Virology, 2025)
